Measured values taken from patent publication US20200157151A1, “PEPTIDE COMPOUNDS, CONJUGATE COMPOUNDS AND USES THEREOF FOR TREATING INFLAMMATORY DISEASES” (TRANSFERT PLUS, S.E.C., priority 2017, published 2020).
Entries after “also recorded” stand apart in the source; their conditions may differ.

Columns and labels:
[1] = test system: human HT-29 colorectal cancer cells; experiment: Time-course uptake by flow cytometry (cell-associated fluorescence); type: cell-based; details: 5 μM, 37° C., HT-29 cells, FIG. 4B
Description: FIG. 4 is a series of charts illustrating higher and sustained uptake of KBC-201 (FIG. 4A). At the same concentration (5 μM), KBC-201 generates about half the fluorescence compared to free curcumin (Ex.: 488 nm, Em.: 530 nm) (FIG. 4B). Time-course uptake of KBC-201 (full line) and free curcumin (dotted line) in human HT-29 colorectal cancer cells. HT-29 cells were incubated at 37° C. with 5 μM of KBC-201 or curcumin at various times, trypsinized, washed, and cell-associated fluorescence uptake was quantified using a BD Accuri™ C6 flow cytometer.
(§1) The uptake of Curcumin conjugate or free Curcumin was measured as a function of time in human HT-29 colon cancer cells (FIG. 4). […] Indeed, the Curcumin conjugate (KBC-201) is less fluorescent by about 2-3 folds when compared to free Curcumin. […] The uptake of both KBC-201 and free Curcumin was next measured in the presence of Sortilin ligands (FIG. 5B). […] Taken together, data of the pharmacological inhibition using Sortilin ligands and the silencing of Sortlin expression confirm that the Curcumin conjugate is internalized via a Sortilin-dependent mechanism.

Sortilin receptor = target: T1, Sortilin receptor (Homo sapiens, UniProt Q99523); experiment: Sortilin-mediated uptake in HT-29 cells (siRNA silencing and competition with Sortilin ligands); type: cell-based; details: 5 μM
T1 construct: Sortilin-deficient (siSortilin) HT-29 colorectal cancer cells; endogenous in cells; host or cells: HT-29 human colorectal cancer cells
T1 sequence (Q99523 78-831): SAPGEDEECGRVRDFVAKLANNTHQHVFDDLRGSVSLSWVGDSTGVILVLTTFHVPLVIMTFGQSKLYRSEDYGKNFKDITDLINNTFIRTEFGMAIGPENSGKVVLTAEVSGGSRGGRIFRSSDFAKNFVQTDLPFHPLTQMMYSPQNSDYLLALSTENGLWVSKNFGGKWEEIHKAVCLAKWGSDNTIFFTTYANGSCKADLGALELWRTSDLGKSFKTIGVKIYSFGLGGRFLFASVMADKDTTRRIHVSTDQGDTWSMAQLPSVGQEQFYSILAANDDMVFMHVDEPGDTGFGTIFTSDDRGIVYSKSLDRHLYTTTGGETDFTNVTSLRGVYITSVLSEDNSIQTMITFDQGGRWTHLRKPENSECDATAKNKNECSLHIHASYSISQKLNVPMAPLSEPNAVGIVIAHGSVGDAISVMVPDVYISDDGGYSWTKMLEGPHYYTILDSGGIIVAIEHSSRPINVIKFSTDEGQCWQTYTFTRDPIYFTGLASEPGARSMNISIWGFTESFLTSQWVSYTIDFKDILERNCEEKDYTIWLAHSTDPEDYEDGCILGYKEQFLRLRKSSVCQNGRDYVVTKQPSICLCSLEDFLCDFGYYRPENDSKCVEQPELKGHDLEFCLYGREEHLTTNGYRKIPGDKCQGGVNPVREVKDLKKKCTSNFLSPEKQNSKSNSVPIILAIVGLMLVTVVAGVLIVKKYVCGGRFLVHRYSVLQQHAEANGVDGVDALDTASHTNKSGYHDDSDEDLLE
Description: FIG. 5 is a series of charts showing Sortilin-mediated uptake of KBC-201 in human colorectal cancer cells, FIG. 5A) Uptake of 5 μM of KBC-201 or free curcumin were performed at 37° C. in control (siScrambled) or Sortilin-deficient (siSortilin) HT-29 colorectal cancer cells. After a 2 h incubation, cells were trypsinized to remove non-internalized products, washed 3-times with ice-cold PBS and cell-associated fluorescence was quantified using a BD Accuri™ C6 flow cytometer. […] Cell-associated fluorescence uptake was quantified using a BD Accuri™ C6 flow cytometer.
as §1

[2] = Stability at room temperature followed by absorbance over time; details: FIG. 11
From the text: FIG. 11 is a graph showing absorbance of Curcumin conjugates and free Curcumin.

[3] = test system: TNF-α-induced NFκB phosphorylation in human MDA-MB231 breast cancer cells; experiment: Inhibition of TNF-α-induced NFκB phosphorylation in MDA-MB231 cells; type: cell-based; details: 24 h pre-treatment, 100 ng/mL TNF-α 5 min, MDA-MB231, FIGS. 9 and 18
From the text: FIG. 9A) Immunodetection of phosphorylated NFκB by TNF-α is shown.
(§2) FIGS. 9 and 10 are other examples of the Curcumin conjugate (KBC-201)'s effect on the TNF-α-induced signaling pathways in two other cancer cell models.
Results presented in FIGS. 18A and 18B show now that the peptide alone (KBP-201) can reduce the TNF-α-induced NFκB phosphorylation by about 30%.
In FIG. 18A, immunodetection of NFκB phosphorylation by TNF-α is shown.

[4] = test system: TNF-α-induced COX-2 expression in human HT-29 colon cancer cells; details: 2 h pre-treatment, 10 ng/mL TNF-α 24 h, HT-29, FIG. 6; compared to free Curcumin
Description: Cells were pre-treated for 2 h with indicated compounds in serum-free medium before the addition of 10 ng/mL TNF-α for 24 h. Cells were lysed and the levels protein expression of COX-2 were monitored by immunoblotting. […] For each sample, the COX-2 level was corrected for GAPDH (a loading control) and normalized to those seen in TNF-α control (value=100%).
Cells were pre-treated for 2 h with indicated compounds in serum-free medium before the addition of 10 ng/mL TNF-α for 24 h. Cells were lysed and the protein expression levels of COX-2 were monitored by immunoblotting. […] For each sample, the COX-2 level was corrected for GAPDH (a loading control) and normalized to those seen in TNF-α control (value=100%).

[5] = test system: TNF-α-induced IκB phosphorylation in human HT-29 colon cancer cells; experiment: Inhibition of TNF-α-induced IκB phosphorylation in HT-29 cells; type: cell-based; details: 24 h pre-treatment, 100 ng/mL TNF-α 5 min, HT-29, FIGS. 8 and 17; compared to Curcumin
From the text: FIG. 8A) Immunodetection of IκB phosphorylation by TNF-α is shown.
One of the inflammatory pathways induced by TNF-α leads to the phosphorylation of IkB (FIG. 1), a key protein in inflammation. As expected, the addition of TNF-α to human HT-29 colon cancer cells triggered the phosphorylation of IkB (pIkB) (FIG. 8).
One of the inflammatory pathways induced by TNF-α leads to the phosphorylation IkB (see FIG. 1), a key protein in inflammation. It was observed that the addition of TNF-α to human HT-29 colon cancer cells triggered the phosphorylation of IkB (pIkB) (FIGS. 17A and 17B).

[6] = test system: TNF-α-induced IκB phosphorylation in human SKOV3 ovarian cancer cells; experiment: Inhibition of TNF-α-induced IκB phosphorylation in SKOV3 cells; type: cell-based; details: 24 h pre-treatment, 100 ng/mL TNF-α 5 min, SKOV3, FIG. 10
From the text: FIG. 10A) Immunodetection of IκB phosphorylation by TNF-α is shown.
as §2

Acetyl-YK(curcumin)SLRRK(curcumin)APRWDAPLRDPALRQLL (YKSLRRKAPRWDAPLRDPALRQLL) [KBC-201]
Uptake over time (cell-associated fluorescence) [1]: higher and sustained uptake over time
Uptake when Sortilin expression is reduced by siRNA (Sortilin receptor; 2 h, 37° C., siSortilin vs siScrambled HT-29 cells, FIG. 5A): strongly inhibited; also recorded: reduces KBC-201 uptake
Uptake in the presence of Sortilin ligands (Sortilin receptor; excess free peptide (50 μM), neurotensin (10 μM) or progranulin (1 nM), HT-29 cells, FIG. 5B): inhibited the uptake; also recorded: inhibit the uptake of KBC-201
Stability (absorbance over time) [2]: more stable
Antagonism of TNF-α-induced phosphorylation of pro-inflammatory proteins (NFκB) [3]: more potent than free Curcumin
Inhibition of TNFα-induced COX-2 expression [4]: stronger inhibition
Inhibition of TNF-α-induced IkB phosphorylation [5]: stronger inhibition
Antagonism of TNF-α-induced phosphorylation of pro-inflammatory proteins (IκB) [6]: more potent than free Curcumin
